Columns and labels:
αvβ6 = αvβ6 (Homo sapiens, UniProt P06756+P18564); assay: αv integrin binding assay, αVβ6-LAP-TGF β1 interaction (integrin coupled beads, flow cytometry); conditions: ligand LAP-TGF β1 (LAP1) 10 nM; integrin 10 nM
Description: (§1) αVβ6/αVβ8—LAP-TGF β1 Binding Assay
(§2) Integrins αVβ6/αVβ8 coupled beads are treated with an αVβ6/αVβ8 ligand (e.g., LAP TGF-β1 (LAP1)), and the complex is incubated with a primary antibody (Ab), which can be labeled for detection (e.g., fluorescently labeled), and optionally with a secondary antibody, which can be labeled for detection (e.g., fluorescently labeled). Reaction between integrin coupled beads and the ligand was considered as the full reaction, and reaction without the ligand or a compound of the disclosure was considered as the blank reaction. The complex is analyzed, e.g., by either plate reader or Flow Cytometer, to determine modulation of binding between αVβ6/αVβ8 and the ligand (e.g., LAP-TGF Pβ1) by the compounds of the present application. […]
(§3) The integrin coupled Dyna beads were allowed to interact with respective ligands. The integrin-ligand complex was detected with either Primary/Secondary Antibody conjugated with Fluorescein Isothiocyanate (FITC). […] Fluorescence was measured by Flow Cytometry analysis.
(§4) αVβ6/αVβ8—LAP-TGF β1 interaction: αVβ6/αVβ8 coupled beads were treated with the ligand LAP TGF-β1 (LAP1) at room temperature for 3 hours. […] The complex was analyzed by either plate reader or Flow Cytometer. […]
(§5) Quantification: The samples were acquired using a BD FACSCalibur system and analyzed with BD Cell quest pro Version 6. […]

αvβ8 = αvβ8 (Homo sapiens, UniProt P06756+P26012); assay: αv integrin binding assay, αVβ8-LAP-TGF β1 interaction (integrin coupled beads, flow cytometry)
Sequence of αvβ8 (P06756 31-992 limits assumed): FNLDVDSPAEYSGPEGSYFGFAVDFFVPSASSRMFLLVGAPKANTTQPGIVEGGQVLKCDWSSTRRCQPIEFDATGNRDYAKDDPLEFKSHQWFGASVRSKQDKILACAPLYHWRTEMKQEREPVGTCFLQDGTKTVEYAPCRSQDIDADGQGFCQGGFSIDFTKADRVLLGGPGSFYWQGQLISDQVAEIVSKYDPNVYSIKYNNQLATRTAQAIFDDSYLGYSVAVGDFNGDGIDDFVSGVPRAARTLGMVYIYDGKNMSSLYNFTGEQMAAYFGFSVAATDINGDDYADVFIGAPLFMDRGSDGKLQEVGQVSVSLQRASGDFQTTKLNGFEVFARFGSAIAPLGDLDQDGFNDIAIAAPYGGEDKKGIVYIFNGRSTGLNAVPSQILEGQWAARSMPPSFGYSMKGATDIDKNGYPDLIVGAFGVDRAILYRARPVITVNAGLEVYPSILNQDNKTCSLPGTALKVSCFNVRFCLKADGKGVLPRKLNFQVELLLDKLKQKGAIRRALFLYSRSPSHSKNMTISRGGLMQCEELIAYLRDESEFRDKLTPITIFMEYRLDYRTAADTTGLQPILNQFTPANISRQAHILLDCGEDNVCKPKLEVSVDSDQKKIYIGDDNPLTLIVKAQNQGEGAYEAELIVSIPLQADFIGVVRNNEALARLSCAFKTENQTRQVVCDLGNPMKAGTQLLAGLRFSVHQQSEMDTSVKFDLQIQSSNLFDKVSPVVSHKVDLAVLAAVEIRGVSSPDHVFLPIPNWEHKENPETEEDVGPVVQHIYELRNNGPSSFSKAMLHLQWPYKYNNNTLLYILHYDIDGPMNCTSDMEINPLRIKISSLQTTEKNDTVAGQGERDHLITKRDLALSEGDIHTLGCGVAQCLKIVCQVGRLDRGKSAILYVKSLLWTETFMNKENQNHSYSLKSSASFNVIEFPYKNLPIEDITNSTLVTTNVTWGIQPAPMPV
Sequence of αvβ8 (P26012 43-684 limits assumed): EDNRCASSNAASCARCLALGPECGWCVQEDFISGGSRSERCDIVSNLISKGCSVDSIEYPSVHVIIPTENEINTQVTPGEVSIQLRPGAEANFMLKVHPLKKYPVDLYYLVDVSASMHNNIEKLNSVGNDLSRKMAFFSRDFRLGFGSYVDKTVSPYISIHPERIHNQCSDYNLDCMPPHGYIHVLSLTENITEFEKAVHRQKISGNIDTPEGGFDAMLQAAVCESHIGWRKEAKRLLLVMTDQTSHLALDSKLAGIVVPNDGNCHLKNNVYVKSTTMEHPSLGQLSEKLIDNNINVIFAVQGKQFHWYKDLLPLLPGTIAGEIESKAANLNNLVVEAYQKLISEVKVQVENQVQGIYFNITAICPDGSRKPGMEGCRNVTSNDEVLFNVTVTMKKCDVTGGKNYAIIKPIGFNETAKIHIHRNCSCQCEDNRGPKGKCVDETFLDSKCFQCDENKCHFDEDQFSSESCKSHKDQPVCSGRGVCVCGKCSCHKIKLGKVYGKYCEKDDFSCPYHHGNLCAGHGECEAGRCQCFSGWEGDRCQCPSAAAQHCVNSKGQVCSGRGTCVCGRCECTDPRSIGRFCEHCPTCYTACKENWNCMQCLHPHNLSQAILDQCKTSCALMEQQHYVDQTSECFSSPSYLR
Description: as §1, §2, §3, §4, §5

Sequence of αvβ6 (P06756 31-992 limits assumed): as the sequence (P06756 31-992 limits assumed) above
Sequence of αvβ6 (P18564 22-707 limits assumed): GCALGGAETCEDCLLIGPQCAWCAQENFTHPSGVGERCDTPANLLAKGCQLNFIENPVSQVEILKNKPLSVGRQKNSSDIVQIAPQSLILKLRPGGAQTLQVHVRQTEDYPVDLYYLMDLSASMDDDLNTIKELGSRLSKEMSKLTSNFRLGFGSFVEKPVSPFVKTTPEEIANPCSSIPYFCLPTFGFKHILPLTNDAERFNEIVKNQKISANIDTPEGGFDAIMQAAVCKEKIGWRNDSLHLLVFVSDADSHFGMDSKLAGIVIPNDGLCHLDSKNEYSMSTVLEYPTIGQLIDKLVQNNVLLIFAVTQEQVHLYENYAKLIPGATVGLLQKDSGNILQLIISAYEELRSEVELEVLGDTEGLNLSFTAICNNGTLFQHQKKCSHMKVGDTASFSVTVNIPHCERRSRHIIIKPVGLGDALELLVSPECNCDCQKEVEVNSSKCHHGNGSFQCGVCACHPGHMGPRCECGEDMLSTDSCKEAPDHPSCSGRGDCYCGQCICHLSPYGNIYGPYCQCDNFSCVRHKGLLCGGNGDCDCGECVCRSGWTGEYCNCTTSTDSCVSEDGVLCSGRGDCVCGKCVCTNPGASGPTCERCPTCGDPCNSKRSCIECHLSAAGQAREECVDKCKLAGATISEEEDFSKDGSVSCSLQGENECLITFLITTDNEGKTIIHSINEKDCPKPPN

Question: For `COc1ccc([C@H](CC(=O)O)N2CCN(CCCc3ccc4c(n3)NCCC4)C2=O)cn1` [A1, (S)-3-(6-methoxypyridin-3-yl)-3-(2-oxo-3-(3-(5,6,7,8-tetrahydro-1,8-naphthyridin-2-yl)propyl)imidazolidin-1-yl)propanoic acid], which IC50 (αvβ6) is on record?
Answer: 0.00957 µM

Question: What about the IC50 (αvβ8; ligand LAP-TGF β1 (LAP1) 20 nM, integrin 10 nM) of the same molecule?
Answer: 0.0176 µM

Question: And the αvβ8/αvβ6 (αvβ8; ratio of αvβ8 IC50 to αvβ6 IC50)?
Answer: 1.83

From patent publication US9572801B2, “Tetrahydronaphthyridinyl propionic acid derivatives and uses thereof” (SciFluor Life Sciences, Inc., priority 2015, dated 2017)
